# Measured values from patent US10485805B2, “Finafloxacin for use in the treatment of urinary tract infections” (MerLion Pharmaceuticals Pte. Ltd., priority 2015, dated 2019).
# Several values for one entry are separate records, joined by “and”; a condition that tells them apart may be missing. Equal entries are not always repeated.
# What was measured:
# [1] = Stability of finafloxacin solutions comprising Tris; format: physicochemical; conditions: compositions comprising Tris
# Excerpt: (§1) However, Tris is herein used as solubility enhancing agent. […] Both effects lead to a completely unexpected result. Tris is therefore to be regarded as a specific tool to considerably enhance the solubility of finafloxacin in solutions. By preparing compositions comprising Tris it is possible to dissolve finafloxacin stably in such an amount therein that these compositions can effectively be used as parenteral compositions for the treatment of UTIs.
# Pseudomonas aeruginosa = assay: Reduction of viable bacteria after 1 h exposure in broth adjusted to different pH values; format: cell-based; conditions: 1 h of incubation, inoculum 10^6 colony forming units per ml
# Protocol: (§2) An overnight inoculum of 10^6 colony forming units per ml broth adjusted to different pH values of different pathogens was exposed to finafloxacin. Bacterial growth was determined before and after 1 h of incubation.
# [2] = tested on: Stenotrophomonas maltophilia clinical isolate; assay: as above; format: cell-based; conditions: 1 h of incubation, inoculum 10^6 colony forming units per ml
# Protocol: as §2
# [3] = tested on: complicated UTIs or pyelonephritis; assay: Double-blind, randomized clinical study, complicated UTIs or pyelonephritis: treatment success (combined clinical and microbiological response); format: in vivo, patients; conditions: 17 days after start of treatment
# [4] = tested on: fluoroquinolone-susceptible pathogens in the urine; assay: Concentration of pathogens in the urine of patients with uncomplicated UTIs after a single oral dose; format: in vivo; conditions: for Bacteria per ml urine - hours after dose: 2 hours: 2 hours after oral dose of 300 mg finafloxacin or 250 mg ciprofloxacin; for Bacteria per ml urine - hours after dose: 2 hours / Bacteria per ml urine - hours after dose: 4 hours / Bacteria per ml urine - hours after dose: 8 hours: individual patients, uncomplicated UTI; for Bacteria per ml urine - hours after dose: 4 hours: 4 hours after oral dose of 300 mg finafloxacin or 250 mg ciprofloxacin; for Bacteria per ml urine - hours after dose: 8 hours: 8 hours after oral dose of 300 mg finafloxacin or 250 mg ciprofloxacin
# Protocol: Patients with uncomplicated UTIs were treated with an oral dose of 300 mg finafloxacin or 250 mg of ciprofloxacin and the concentrations of the fluoroquinolone-susceptible pathogens in the urine were determined before and 2, 4 and 8 hours after intake of the drugs. (−bacterial titers below 10^3).
# [5] = Solubility of finafloxacin in the presence of Tris; format: physicochemical; conditions: compared with other buffer substances (e.g. phosphate buffer)
# Excerpt: as §1
# [6] = tested on: isolate (pathogen from urine of patients with uncomplicated UTI); assay: MIC of the patients' urine isolates; format: cell-based; conditions: ciprofloxacin MIC of each patient's isolate (patients 1-7, one line per patient)
SMILES,stability of solutions [1],number of viable bacteria in the medium reduced by (Pseudomonas aeruginosa; pH 5.2),number of viable bacteria in the medium reduced by (Pseudomonas aeruginosa; pH 6.2),number of viable bacteria in the medium reduced by (Pseudomonas aeruginosa; pH 7.2),number of viable bacteria in the medium reduced by ([2]; pH 5.2),number of viable bacteria in the medium reduced by ([2]; pH 7.2),"treatment success (combined clinical response and microbiological response) ([3]; overall treatment duration 5 days (3 days intravenous 800 mg daily, then oral 800 mg daily))","treatment success (combined clinical response and microbiological response) ([3]; overall treatment duration 10 days (3 days intravenous, then 7 days oral))",Bacteria per ml urine - hours after dose: 2 hours [4],Bacteria per ml urine - hours after dose: 2 hours ([4]; listed as finafloxacin),Bacteria per ml urine - hours after dose: 4 hours [4],Bacteria per ml urine - hours after dose: 8 hours [4],"time after intake within which pathogens are eradicated in the urine ([4]; oral formulation, patients with uncomplicated UTIs)",solubility [5],Bacteria per ml urine - hours after dose: 2 hours ([4]; listed as ciprofloxacin),Bacteria per ml urine - hours after dose: 4 hours ([4]; listed as ciprofloxacin),MIC of isolate [Cipro mg/L] [6]
"N#Cc1c(N2C[C@@H]3NCCO[C@H]3C2)c(F)cc2c(=O)c(C(=O)O)cn(C3CC3)c12 [Finafloxacin, (−)-8-cyano-1-cyclopropyl-6-fluoro-7-[(4aS,7aS)-hexahydropyrrolo[3,4-B]-1,4-oxazin-6(2H)-yl]-4-oxo-1,4-dihydroquinoline-3-carboxylic acid]",long term stability,98.6%,99.3%,99.9%,87.4%,99.8%,70.3%,67.6%,— (bacterial titers below 10^3),below 10^3 Bacteria per ml urine,— (bacterial titers below 10^3),— (bacterial titers below 10^3),≤ 2 h,high solubility,,,
"O=C(O)c1cn(C2CC2)c2cc(N3CCNCC3)c(F)cc2c1=O [Ciprofloxacin, reference compound]",,,,,,,,,— (bacterial titers below 10^3) and 2.0 × 10^3 Bacteria per ml urine and 6.1 × 10^4 Bacteria per ml urine,,— (bacterial titers below 10^3) (2×) and 2.7 × 10^3 Bacteria per ml urine,— (bacterial titers below 10^3),,,above 10^3 Bacteria per ml urine,above 10^3 Bacteria per ml urine,0.012 mg/L (3×) and 0.19 mg/L (2×) and 0.008 mg/L (2×)
